Assay results: patent US10011573B2, “Human androgen receptor DNA-binding domain (DBD) compounds as therapeutics and methods for their use” (The University of British Columbia, priority 2014, dated 2018)

Key:
PARP = assay: Western blots against PARP / cleaved PARP (apoptosis); format: cell-based, human; conditions: PC3 luciferase assay lysates
Procedure: Cell lysates (40 μl) from luciferase assays (96-well plate) were separated on a 10% SDS-polyacrylamide mini gel. Protein was transferred to methanol-charged PVDF membranes and probed with anti-AR441 (mouse, Sigma™) monoclonal primary antibody. Blots were also probed with polyclonal anti-actin (rabbit, Sigma™) to show equal loading and polyclonal anti-PARP/anti-cleaved PARP (rabbit, Sigma™) to test for induction of apoptosis. Lysates from CWR-R1 cells were additionally probed with polyclonal anti-FKBP5 (rabbit, Sigma™) following 2 days of incubation with compounds.

AR Y594D mutant = target: T1, AR Y594D mutant (Homo sapiens, UniProt P10275, Y594D); assay: ARR3tk-luciferase reporter assay in PC3 cells, AR Y594D; format: cell-based
T1 construct: expressed in transfected cells; host or cells: PC3
Procedure: 8. Mutation Studies: The residues in the predicted binding site were mutated using the Quickchange™ Site-Directed Mutagenesis Kit as per the instructions.
9. Transient Transfection: The PC3/MCF7 cells were seeded into a 96-well plate (2,000 cells/well). After 24 hrs, the wild-type AR (50 ng/well)/AR mutants and AR3TK-luciferase plasmids (1:3) were co-transfected into PC3 cells or ERE-luciferase (50 ng/well) was transfected into MCF7 cells using transfection reagent TT20. 24 hrs after the transfection, the cells were treated with the compounds at various concentrations. And 24 hrs later, the cells were lysed and the reading was taken using a luminometer.

LNCaP cells = assay: Cell viability (MTS) assay, LNCaP; format: cell-based, human; conditions: 0.1 nM R1881
Procedure: 1. Cell Culture: LNCaP and PC3 human prostate cancer cells were obtained from American Type Culture Collection (ATCC, Manassas, Va.) and grown in RPMI 1640 medium supplemented with 5% fetal bovine serum (FBS) (Invitrogen). […]. All cells were maintained at 37° C. in 5% CO2.
7. Cell viability assay: The PC3, LNCaP, and MDV3100-resistant cells were plated at 3,000 cells per well in RPMI 1640 containing 5% charcoal stripped serum (CSS) in a 96-well plate, treated with 0.1 nM R1881 and compounds (0-25 μM) for 96 hrs.

AR-DBD+hinge / ARE dsDNA = target: T2, AR-DBD+hinge / ARE dsDNA (Homo sapiens, UniProt P10275); assay: Biolayer interferometry analysis of dsDNA (ARE) association with biotinylated AR-DBD+hinge; format: binding; set-up: His tag (C); made in house; host or cells: E. coli BL21 co-transformed with biotin ligase vector (pBir-Acm); conditions: 50 μM compound
T2 sequence (P10275 558-689): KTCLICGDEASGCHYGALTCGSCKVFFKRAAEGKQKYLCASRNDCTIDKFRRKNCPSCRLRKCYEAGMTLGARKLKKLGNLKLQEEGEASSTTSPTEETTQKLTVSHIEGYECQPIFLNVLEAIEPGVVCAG
Procedure: The plasmid encoding the AR-DBD+hinge was transformed into BL21 (DE3). BL21 cells designated for expression of biotin-labeled AR-DBD+hinge were co-transformed with the Pan4 AR-DBD+hinge (ampicillin selection) and biotin ligase expression vectors (pBir-Acm, chloramphenicol selection). Single colonies were grown in 2 liters of LB media supplemented with 50 μg/ml ampicillin and 35 μg/ml chloramphenicol (where appropriate) to A600 nm=0.6 before induction with 0.1 mM isopropyl β-D-1-thiogalactopyranoside for 3 h at 37° C. Cultures expressing the AR-DBD with the biotinylation sequence were simultaneously supplemented with 0.150 mM biotin during the induction step. Cell pellets were resuspended in ˜20 ml of 50 mM Tris-HCl, pH 8.0, 300 mM NaCl, 5% glycerol (Buffer A) supplemented with 10 mM imidazole and incubated with 0.1 mg/ml chicken egg white lysozyme (Sigma™) and 0.1 mM PMSF protease inhibitor for 30 min on ice. Cell lysis was achieved by sonication, followed by centrifugation at 13,000×g for 30 min at 4° C. The supernatant was rotated with 2 ml of nickel-agarose beads (GE Healthcare™) for 1 h at 4° C. and then directly loaded onto a Poly-Prep 10-ml gravity chromatography column (Bio-Rad™). Washing was performed with 2×4 ml of Buffer A supplemented with 20 mM imidazole. Pure proteins were eluted in 500-μl fractions with 2 ml of Buffer A containing 250 mM imidazole.
Biolayer interferometry analysis on a ForteBio Octet Red™ instrument was carried out using biotinylated AR-DBD+hinge in Buffer A with 5% DMSO throughout all experiments. The DBD (0.1 mg/ml) was loaded onto streptavidin sensors in 200 μl of buffer for 30 min, followed by blocking of free streptavidin sites with biocytin (10 μg/ml) for 10 min. DBD-loaded sensors were then pre-equilibrated in 50 μM compound or 5% DMSO alone for 100 s in the same buffer. The kinetics of DNA association were monitored by moving sensors into wells containing dsDNA (ARE, 3 μM) supplemented with 50 μM compound for 120 s. This was followed by dissociation in buffer+compound, but lacking DNA, for an additional 120 s. Biocytin-blocked control sensors (no AR-DBD) were subjected to the same experimental conditions, and nonspecific interactions with dsDNA were subtracted from each curve.

T1 sequence (P10275 whole entry Y594D): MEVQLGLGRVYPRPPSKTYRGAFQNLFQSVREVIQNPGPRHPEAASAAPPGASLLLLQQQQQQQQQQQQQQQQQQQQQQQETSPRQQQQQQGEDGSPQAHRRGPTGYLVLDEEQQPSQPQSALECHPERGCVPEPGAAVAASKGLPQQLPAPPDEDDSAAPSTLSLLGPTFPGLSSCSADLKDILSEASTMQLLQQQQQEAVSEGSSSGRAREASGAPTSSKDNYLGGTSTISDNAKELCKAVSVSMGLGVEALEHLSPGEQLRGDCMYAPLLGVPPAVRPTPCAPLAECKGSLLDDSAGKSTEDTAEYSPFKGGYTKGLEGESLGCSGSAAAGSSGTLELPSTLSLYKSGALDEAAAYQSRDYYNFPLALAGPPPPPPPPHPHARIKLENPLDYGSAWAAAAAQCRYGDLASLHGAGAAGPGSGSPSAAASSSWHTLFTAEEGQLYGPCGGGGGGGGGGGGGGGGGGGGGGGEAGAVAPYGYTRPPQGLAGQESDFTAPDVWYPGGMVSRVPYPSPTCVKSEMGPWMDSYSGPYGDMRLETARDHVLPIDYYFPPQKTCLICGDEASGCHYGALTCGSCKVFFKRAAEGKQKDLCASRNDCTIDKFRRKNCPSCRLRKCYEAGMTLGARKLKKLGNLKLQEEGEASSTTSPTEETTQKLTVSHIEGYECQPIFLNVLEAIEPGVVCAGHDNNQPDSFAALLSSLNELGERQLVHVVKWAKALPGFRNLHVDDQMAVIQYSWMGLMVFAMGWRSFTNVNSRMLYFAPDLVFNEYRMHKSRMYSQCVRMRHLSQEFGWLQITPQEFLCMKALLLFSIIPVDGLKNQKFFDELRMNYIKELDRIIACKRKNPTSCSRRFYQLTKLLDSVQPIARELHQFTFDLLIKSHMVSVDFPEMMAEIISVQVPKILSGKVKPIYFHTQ

Structure (SMILES) | toxicity / induction of apoptosis (PARP cleavage) (PARP) | concentration at which Y594D AR is inhibited (AR Y594D mutant; PC3 cells) [µM] | inhibition of cell growth, LNCaP (LNCaP cells) | dsDNA dissociation from AR-DBD (AR-DBD+hinge / ARE dsDNA) | rate of dsDNA association with AR-DBD (AR-DBD+hinge / ARE dsDNA) | inhibition of Y594D AR luciferase expression (AR Y594D mutant)
Brc1ncn(-c2csc(N3CCOCC3)n2)c1Br [Compound 14449] | little or no toxicity | ≥ 25 | concentration-dependent inhibition of the cell growth | relatively unchanged | significantly slower rate of dsDNA binding | 
c1ccc(-c2csc(N3CCOCC3)n2)cc1 [Compound 14228, 4-(4-phenylthiazol-2-yl)morpholine] | little or no toxicity |  | strongly inhibits | relatively unchanged | significantly slower rate of dsDNA binding | not affected
